Source: US6362233B1, “Methoxy capped alkoxylated glycerin compounds” (Phoenix Research Corporation, priority 2001, dated 2002)

Experiment: Hydrolysis stability test: 10% test material in solution adjusted to pH 5 with lactic acid, placed at 50 C. for 5 days
Type: physicochemical
Details: pH adjusted to 5 with lactic acid
Excerpt: The compounds of the present invention are stable to hydrolysis and provide emollient properties to skin. Typical of the stability of the compounds of the present invention compared to acetate salts is as follows:
pH adjusted to 5 with lactic acid.
10% test material added to get solution.
Placed at 50 C. for 5 days.

| Substance | Result (stability to hydrolysis) |
| --- | --- |
| Glycereth-7-Methoxy capped | Stable clear liquid |
| Glycereth-7-acetate | Acetic smell, hydrolyzed |
